Read-outs that look alike come from different tables or passages of the source.
What was measured:
[1] = Cell viability assay (PrestoBlue resazurin); type: cell-based, Mus musculus (mouse); conditions: mouse;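 also: mouse B16-F10 melanoma cells exposed to test samples for 72 h, with viability read as fluorescence of resorufin formed when living cells reduce PrestoBlue resazurin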
[2] = molecular target: mushroom tyrosinase (Agaricus bisporus, UniProt C7FF04); assay: Mushroom tyrosinase inhibitory assay (o-diphenolase activity, L-DOPA as substrate); type: biochemical; conditions: for inhibition at 300 µM: read-out: Mushroom Tyrosinase Inhibition % Inhibition (at 300 μM); for inhibitory activity on mushroom tyrosinase (in words): o-diphenolase; for inhibition at 200 µM: read-out: Mushroom Tyrosinase Inhibition % Inhibition (at 200 μM); for behaviour as substrate of mushroom tyrosinase (in words): pre-incubation with enzyme in absence of L-DOPA, coloured product at 475 nm;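 as to all read-outs here: enzyme and test sample preincubated 10 min at 25 °C in pH 6.8 phosphate buffer, 50% DMSO vehicle as control, enzyme-free mixture as blank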
[3] = tested on: B16-F10 melanoma cells; assay: Total melanin content assay; type: cell-based, Mus musculus (mouse); conditions: for activity at 15 µM / activity at 30 µM: read-out: % Melanin Content
Description: Mus musculus (mouse) melanoma cell line, B16-F10 (ATCC® Number: CRL-6475™, Manassas, VA, USA), was cultured in complete Dulbecco′s Modified Eagle′s Medium (DMEM, phenol red-free medium) containing 10% fetal bovine serum, 25 mM glucose, 4 mM L-glutamine, 1 mM sodium pyruvate, 10 μg/mL penicillin, and 10 μg/mL streptomycin, at 37 °C, with 5% carbon dioxide (CO2) in a humidified atmosphere.
The total melanin content, produced both extracellularly and intracellularly, was determined as follows: B16-F10 cells were seeded onto a 24-well plate at a concentration of 50,000 cells/0.5 mL/well and were incubated for 24 h, followed by treatment with either the test compounds or the control (0.5% DMSO), and then incubated for 72 h. For extraction, the total produced melanin and 0.5 mL of 2 N NaOH containing 20% DMSO were added directly to the cell culture medium, mixed by pipetting and then incubated at room temperature for 1 h. The lysed cell extract was centrifuged at 13,000× g for 5 min. Finally, the supernatant was transferred to a 96-well plate and the relative melanin content was detected at 405 nm using a micro plate reader. Kojic acid and oxyresveratrol were used as positive controls.

[4] = molecular target: T1, murine tyrosinase (Mus musculus, UniProt P11344); assay: Murine tyrosinase inhibitory assay (o-diphenolase activity, crude enzyme from B16-F10 melanoma cells); type: biochemical;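 also: crude tyrosinase taken from lysed, dialyzed B16-F10 cell extract, with the inhibition reaction incubated for 2 h at 37 °C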
T1 construct: The cells were lysed by vortex and incubated at 4 °C for 1 h to solubilize the tyrosinase enzyme; endogenous in cells; host or cells: B16-F10 melanoma cells (Triton X-100 lysate, dialyzed)
T1 sequence (P11344 19-533): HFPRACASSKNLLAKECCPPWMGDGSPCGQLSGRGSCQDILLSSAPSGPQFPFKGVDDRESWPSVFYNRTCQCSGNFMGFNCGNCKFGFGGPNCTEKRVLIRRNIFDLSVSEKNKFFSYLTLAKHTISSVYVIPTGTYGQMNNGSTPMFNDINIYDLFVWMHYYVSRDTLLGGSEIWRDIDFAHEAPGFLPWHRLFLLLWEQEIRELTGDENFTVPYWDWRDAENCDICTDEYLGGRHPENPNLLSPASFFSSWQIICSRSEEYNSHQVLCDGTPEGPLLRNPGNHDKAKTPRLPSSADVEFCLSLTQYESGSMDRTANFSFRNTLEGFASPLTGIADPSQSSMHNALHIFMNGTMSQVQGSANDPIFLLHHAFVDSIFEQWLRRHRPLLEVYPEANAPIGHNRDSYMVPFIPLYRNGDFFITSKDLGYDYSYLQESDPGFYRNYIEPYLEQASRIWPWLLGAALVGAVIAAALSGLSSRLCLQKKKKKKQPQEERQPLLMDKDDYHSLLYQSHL

[5] = tested on: human melanoma cells (MMV II); parameters: method as in PMID 25248426; conditions: cited from earlier work
[6] = B16-F10 melanoma cells, 15 μM, 72 h, relative to control, read-out: % Cell Viability
[7] = B16-F10 melanoma cells, 30 μM, 72 h, relative to control, read-out: % Cell Viability
[8] = Mus musculus, B16-F10, 15 μM, 72 h, relative to control
[9] = Mus musculus, B16-F10, 30 μM, 72 h, relative to control
[10] = 200 μM, L-DOPA substrate, read-out: Murine Tyrosinase Inhibition, % (at 200 μM), symbol
[11] = 200 μM, L-DOPA substrate, read-out: Murine Tyrosinase Inhibition, % (at 200 μM)

Sequence of mushroom tyrosinase (G1K3P4 entry or part of it): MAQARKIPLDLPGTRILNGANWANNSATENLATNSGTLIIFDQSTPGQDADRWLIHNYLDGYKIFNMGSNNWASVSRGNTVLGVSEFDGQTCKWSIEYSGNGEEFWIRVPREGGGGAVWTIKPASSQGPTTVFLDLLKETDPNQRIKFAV
Sequence of mushroom tyrosinase (C7FF04 2-392): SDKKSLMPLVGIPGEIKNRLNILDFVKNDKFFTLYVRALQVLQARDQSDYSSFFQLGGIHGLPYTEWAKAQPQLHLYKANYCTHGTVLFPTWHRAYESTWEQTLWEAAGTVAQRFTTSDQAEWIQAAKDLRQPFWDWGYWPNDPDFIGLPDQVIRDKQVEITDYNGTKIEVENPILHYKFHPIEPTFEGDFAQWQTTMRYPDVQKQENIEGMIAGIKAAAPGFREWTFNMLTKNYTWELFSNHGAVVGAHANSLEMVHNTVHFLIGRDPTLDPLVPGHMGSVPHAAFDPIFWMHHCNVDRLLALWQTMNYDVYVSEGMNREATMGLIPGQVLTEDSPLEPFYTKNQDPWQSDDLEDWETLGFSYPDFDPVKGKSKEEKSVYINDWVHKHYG

| inhibition at 200 µM [4, 10] | SMILES | viability at 72 h, 15 µM [1, 6] | viability at 72 h, 30 µM [1, 7] | activity at 15 µM [3, 8] | activity at 30 µM [3, 9] | further results |
| --- | --- | --- | --- | --- | --- | --- |
| < 0% | COc1ccc(-c2coc3cc(O)ccc3c2=O)cc1 [Compound 1, Formononetin] | 96 ± 3.3% | 92.8 ± 9.4% | 134 ± 2.7% | 155 ± 15.4% | inhibition at 300 µM ([2]; L-DOPA substrate): 10%; inhibitory activity on mushroom tyrosinase (in words) ([2]; L-DOPA substrate): did not show inhibitory activity |
| < 0% | COc1ccc(-c2coc3cc(O)cc(O)c3c2=O)cc1 [Compound 3, Biochanin A] | 103 ± 4.5% | 102 ± 4.8% | 165 ± 5.9% | 168 ± 5.1% | inhibition at 200 µM ([2]; 200 μM, L-DOPA substrate): 9.2 ± 0.4%; inhibitory activity on mushroom tyrosinase (in words) ([2]; L-DOPA substrate): did not show inhibitory activity |
| < 0% | COc1ccc(-c2coc3cc(O)cc(O)c3c2=O)c(OC)c1O [Compound 7, Khrinone C] | 93.3 ± 2% | 93.4 ± 2% | 107.6 ± 0.8% | 154 ± 9.9% | inhibition at 300 µM ([2]; L-DOPA substrate): 2%; inhibitory activity on mushroom tyrosinase (in words) ([2]; L-DOPA substrate): did not show inhibitory activity |
| < 0% | COc1cc2c(cc1C1COc3cc(O)ccc3C1=O)OCO2 (stereo not shown) [Compound 11, Onogenin] | 100 ± 5% | 92 ± 2% | 134 ± 4.6% | 170 ± 15.4% | inhibition at 300 µM ([2]; L-DOPA substrate): 0% |
| < 0% | COc1cc(OC)c(C2COc3cc(O)ccc3C2=O)cc1O (stereo not shown) [Compound 12, Dalparvin] | 117 ± 8.9% | 99.7 ± 6.7% | 134 ± 9.7% | 200 ± 12.1% | inhibition at 200 µM ([2]; 200 μM, L-DOPA substrate): 31.6 ± 0.5% |
| < 0% | COc1ccc(C2COc3cc(O)ccc3C2=O)c(OC)c1OC [Compound 15, (3R,S)-3′-O-Methylviolanone] | 74.2 ± 7.8% | 72.9 ± 6.2% | 143 ± 8.4% | 157 ± 11.5% | inhibition at 300 µM ([2]; L-DOPA substrate): 0% |
| < 0% | COc1ccc(C2COc3cc(O)cc(O)c3C2=O)cc1O [Compound 16, (3R,S)-Kenusanone G] | 124 ± 1.7% | 102 ± 2.8% | 133 ± 5.1% | 158 ± 13.5% | inhibition at 500 µM ([2]; L-DOPA substrate): 0% |
| < 0% | COc1cc(OC)c(C2COc3cc(O)cc(O)c3C2=O)cc1O (stereo not shown) [Compound 18, Dalparvin A] | 105 ± 4.8% | 100 ± 7.1% | 132 ± 4.4% | 184 ± 10.6% | inhibition at 500 µM ([2]; L-DOPA substrate): 0% |
| < 0% | COc1ccc(C2COc3c(ccc(O)c3OC)C2)c(OC)c1O (stereo not shown) [Compound 22, Duartin] | 140 ± 7.5% | 94.4 ± 2.8% | 301.1 ± 2.3% | 326.8 ± 2.1% | inhibition at 500 µM ([2]; L-DOPA substrate): 0%; increase in melanin content with respect to the control [3]: three-fold increase; effect on melanin content (in words, Figure 1) ([3]; 30 μM): increased the melanin content |
| < 0% | COc1ccc([C@H]2COc3c(ccc(O)c3O)C2)c(OC)c1O [Compound 23, (3S)-8-Demethylduartin] | 93.5 ± 3% | 98.3 ± 5.4% | 87.8 ± 2% | 72.7 ± 4.3% | behaviour as substrate of mushroom tyrosinase (in words) [2]: chromogenic substrate analog |

The next lines start with the molecule.

| SMILES | inhibition at 200 µM [4, 10] | viability at 72 h, 15 µM [1, 6] | viability at 72 h, 30 µM [1, 7] | activity at 15 µM [3, 8] | activity at 30 µM [3, 9] | further results |
| --- | --- | --- | --- | --- | --- | --- |
| COc1cc(-c2coc3cc(O)cc(O)c3c2=O)ccc1O [Compound 6, 3′-O-Methylorobol] | < 0% | 107 ± 6.2% | 102 ± 2.7% | 170 ± 10.5% | 216 ± 15.7% | inhibition at 200 µM ([2]; 200 μM, L-DOPA substrate): 14.3 ± 1.1%; inhibitory activity on mushroom tyrosinase (in words) ([2]; L-DOPA substrate): did not show inhibitory activity |
| COc1c(O)cc2occ(-c3ccc(O)cc3)c(=O)c2c1O [Compound 8, Tectorigenin] |  | 130 ± 3.4% | 119 ± 1.3% | 128 ± 2.8% | 152 ± 4.7% | behaviour as substrate of mushroom tyrosinase (in words) [2]: chromogenic substrate analogs; inhibition at 200 µM [4, 11]: 10.2 ± 2.9% |
| COc1cc(O)c2c(=O)c(-c3ccc(O)cc3O)coc2c1 [Compound 9, Cajanin] |  |  |  |  |  | viability at 72 h, 15 µM ([1]; 15 μM, 72 h, relative to control, read-out: % Cell Viability): 102 ± 6.6%; viability at 72 h, 30 µM ([1]; 30 μM, 72 h, relative to control, read-out: % Cell Viability): 107 ± 3.3%; inhibition at 200 µM [2]: 65 ± 1.6%; effect on melanin content (in words, Figure 1) ([3]; 30 μM): inhibitory effect of melanogenesis; activity at 15 µM ([3]; Mus musculus, B16-F10, 72 h): 65.8 ± 7.5%; activity at 30 µM ([3]; Mus musculus, B16-F10, 72 h): 61.6 ± 8.9%; inhibition at 15 µM ([3]; Mus musculus, B16-F10, read-out: inhibition of melanogenesis): 34%; inhibition at 200 µM ([4]; read-out: Murine Tyrosinase Inhibition, % (at 200 μM)): 9.2 ± 1.5% |
| COc1ccc([C@@H]2COc3cc(O)ccc3C2=O)cc1O [Compound 10, (3R)-7,3′-Dihydroxy-4′-methoxy-isoflavanone] | < 0% | 94.9 ± 3.9% | 96.5 ± 3.9% | 95.1 ± 3% | 95.2 ± 2.7% | inhibition at 200 µM [2]: 52.1 ± 0.4% |
| COc1ccc(C2COc3cc(O)ccc3C2=O)c(O)c1OC (stereo not shown) [Compound 13, Dalparvin B] |  | 82.3 ± 5.4% | 74.1 ± 6.4% | 102 ± 2.7% | 99.1 ± 2.3% | inhibition at 500 µM ([2]; L-DOPA substrate): 4%; inhibition at 200 µM [4, 11]: 9.8 ± 2.8% |
| COc1ccc([C@H]2COc3cc(O)cc(O)c3C2=O)c(OC)c1O [Compound 17, (3S)-Secundiflorol H] | < 0% | 109 ± 6.6% | 103 ± 4.1% | 118 ± 17.7% | 146 ± 6.1% | inhibition at 200 µM ([2]; 200 μM, L-DOPA substrate): 44 ± 3.7% |
| COc1ccc([C@@H]2COc3cc(O)ccc3C2)c(O)c1 [Compound 19, (3R)-Vestitol] |  | 142 ± 3% | 120 ± 4.1% | 186.1 ± 1.6% | 232 ± 9.3% | inhibition at 200 µM ([2]; 200 μM, L-DOPA substrate): 35.6 ± 2.2%; inhibition at 200 µM [4, 11]: 12.4 ± 3.3% |
| COc1ccc([C@@H]2COc3cc(O)ccc3C2)c(OC)c1O [Compound 20, (3R)(+)-Mucronulatol] |  | 104 ± 6.9% | 102 ± 2.7% | 179 ± 15.9% | 264 ± 8.2% | inhibition at 200 µM ([2]; 200 μM, L-DOPA substrate): 48.3 ± 1.6%; inhibition at 200 µM [4, 11]: 12.8 ± 2.1% |
| O=C1C[C@@H](c2ccc(O)cc2)Oc2cc(O)ccc21 [Compound 24, (2S)-Liquiritigenin] |  | 98.9 ± 10.7% | 100 ± 3.5% | 103 ± 5.5% | 124 ± 2% | inhibition at 200 µM [2]: 52.1 ± 1.4%; inhibition at 200 µM [4, 11]: 13.2 ± 2.7% |
| O=C1C[C@@H](c2ccc(O)cc2)Oc2cc(O)cc(O)c21 [Compound 25, (2S)-Naringenin] | < 0% | 94.3 ± 2% | 98.1 ± 0.5% | 132 ± 14.5% | 152 ± 3.8% | behaviour as substrate of mushroom tyrosinase (in words) [2]: chromogenic substrate analogs; effect on melanin content (in words, Figure 1) ([3]; 30 μM): increased the melanin content |
| O=c1cc(CO)occ1O [Kojic acid, reference compound] |  | 98.9 ± 4.7% | 99.6 ± 2.3% | 68.9 ± 5.2% | 74.2 ± 5.8% |  |
| Oc1cc(O)cc(/C=C/c2ccc(O)cc2O)c1 [Oxyresveratrol, reference compound] |  |  |  | 24.3 ± 1.1% | 28.4 ± 1.7% | viability at 72 h, 15 µM ([1]; % Cell Viability): 117 ± 2.2%; viability at 72 h, 30 µM ([1]; % Cell Viability): 118 ± 5.1%; inhibition at 200 µM [2]: 98.4 ± 1.1% |
| O=c1cc(-c2ccc(O)cc2)oc2cc(O)cc(O)c12 [apigenin] |  |  |  |  |  | effect on melanogenesis (in words) [5]: melanogenesis-promoting actions |

— paper PMC6100075, “Correlation between the Potency of Flavonoids on Mushroom Tyrosinase Inhibitory Activity and Melanin Synthesis in Melanocytes” (Molecules : A Journal of Synthetic Chemistry and Natural …, 2018)
